# Test results as given in patent US8530487B1 (priority 2009, dated 2013).
# Target: human TRPA1 (Homo sapiens, UniProt O75762)
# Assay: cell-based
# Settings: not given
# human TRPA1, sequence (O75762 whole entry): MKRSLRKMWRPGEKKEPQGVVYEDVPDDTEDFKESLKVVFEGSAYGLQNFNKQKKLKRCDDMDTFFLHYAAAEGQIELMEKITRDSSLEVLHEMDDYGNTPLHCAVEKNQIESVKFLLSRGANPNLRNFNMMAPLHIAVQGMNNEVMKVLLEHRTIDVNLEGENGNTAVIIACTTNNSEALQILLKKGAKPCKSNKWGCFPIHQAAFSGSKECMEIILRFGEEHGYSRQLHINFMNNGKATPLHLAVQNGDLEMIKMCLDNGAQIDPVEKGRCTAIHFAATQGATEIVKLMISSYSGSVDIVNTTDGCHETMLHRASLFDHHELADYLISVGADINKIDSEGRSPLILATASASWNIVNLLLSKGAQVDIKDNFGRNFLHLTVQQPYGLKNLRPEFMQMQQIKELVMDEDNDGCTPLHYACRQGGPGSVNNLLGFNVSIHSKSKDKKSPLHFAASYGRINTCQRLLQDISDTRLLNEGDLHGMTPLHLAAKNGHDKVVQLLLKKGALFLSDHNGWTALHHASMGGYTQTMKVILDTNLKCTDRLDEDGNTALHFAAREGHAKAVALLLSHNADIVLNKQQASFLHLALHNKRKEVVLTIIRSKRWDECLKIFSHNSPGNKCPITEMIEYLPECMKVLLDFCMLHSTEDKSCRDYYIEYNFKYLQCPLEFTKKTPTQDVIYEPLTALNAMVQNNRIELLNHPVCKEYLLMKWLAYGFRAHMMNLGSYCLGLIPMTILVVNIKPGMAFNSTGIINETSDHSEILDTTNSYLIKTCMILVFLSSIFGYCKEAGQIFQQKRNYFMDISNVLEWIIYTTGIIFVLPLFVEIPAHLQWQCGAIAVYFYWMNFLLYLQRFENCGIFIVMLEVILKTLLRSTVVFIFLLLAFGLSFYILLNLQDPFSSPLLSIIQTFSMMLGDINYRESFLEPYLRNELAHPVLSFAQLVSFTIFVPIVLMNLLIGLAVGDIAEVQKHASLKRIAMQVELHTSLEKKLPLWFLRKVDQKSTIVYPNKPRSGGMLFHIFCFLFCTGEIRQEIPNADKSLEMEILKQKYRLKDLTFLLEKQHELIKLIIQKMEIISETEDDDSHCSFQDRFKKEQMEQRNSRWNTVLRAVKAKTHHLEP
row,SMILES,IC50
1,O=C1C2=C(NC(=S)NC2c2ccccc2)c2ccccc21 (centres unmarked) [Compound 201],< 100 nM
2,O=C1C2=C(NC(=S)NC2c2ccccc2O)c2ccccc21 (centres unmarked) [Compound 15],< 100 nM
3,O=C1C2=C(NC(=S)NC2c2ccccc2)c2ccc(O)cc21 (centres unmarked) [Compound 203],> 1000 nM

# Same assay, conditions: read-out: Activity (IC50)
row,SMILES,IC50
1,O=C1NC2=C(C(=O)c3ccccc32)C(c2ccc3c(c2)OCO3)N1 (centres unmarked) [Compound 457],> 1000 nM
2,O=C1NC2=C(C(=O)c3ccccc32)C(c2cccc3[nH]c(=O)oc23)N1 (centres unmarked) [Compound 505],> 1000 nM
3,N#CN=C1NC2=C(C(=O)c3ccccc32)C(c2ccccc2)N1 (centres unmarked) [Compound 956],> 1000 nM
4,CCCOc1cccc(C2NC(=NC#N)NC3=C2C(=O)c2ccccc23)c1 (centres unmarked) [Compound 960],> 1000 nM
5,O=C1NC2=C(C(=O)c3ccccc32)C(c2cccc(O)c2)N1 (centres unmarked) [Compound 436],> 1000 nM
6,COc1cccc(C2NC(=O)NC3=C2C(=O)c2ccccc23)c1OC (centres unmarked) [Compound 438],> 1000 nM
7,O=C1NC2=C(C(=O)c3ccccc32)C(c2cccc(OCC3CCC3)c2)N1 (centres unmarked) [Compound 461],> 1000 nM
8,CCCN1C(=O)NC(c2cccc(OC)c2)C2=C1c1ccccc1C2=O (centres unmarked) [Compound 624],> 1000 nM
9,N#CN=C1NC2=C(C(=O)c3ccccc32)C(c2cccc(OCC3CC3)c2)N1 (centres unmarked) [Compound 951],> 1000 nM
10,N#CN=C1NC2=C(C(=O)c3ccccc32)C(c2cccc(OCC3CC3)c2Cl)N1 (centres unmarked) [Compound 957],> 1000 nM
11,O=C1NC2=C(C(=O)c3ccccc32)C(c2cccc(OC(=O)C3CC3)c2)N1 (centres unmarked) [Compound 459],> 1000 nM
12,CN1C(=O)NC(c2cccc(C#N)c2)C2=C1c1ccccc1C2=O (centres unmarked) [Compound 644],> 1000 nM
13,C=CCOc1cccc(C2NC(=NC#N)N(Cc3ccccc3)C3=C2C(=O)c2ccccc23)c1 (centres unmarked) [Compound 961],> 1000 nM
14,O=C1NC2=C(C(=O)c3ccccc32)C(c2cccnc2)N1 (centres unmarked) [Compound 501],> 1000 nM
15,O=C1NC2=C(C(=O)c3ccccc32)C(c2cccc3c2OC(F)(F)O3)N1 (centres unmarked) [Compound 440],> 1000 nM

# Further lines, results first:
row,IC50,SMILES
1,< 100 nM,CCCOc1cccc(C2NC(=O)NC3=C2C(=O)c2cccnc23)c1 (centres unmarked) [Compound 904]
2,100 to 500 nM,CCCC(O)c1cccc(C2NC(=O)NC3=C2C(=O)c2cccnc23)c1 (centres unmarked) [Compound 908]
3,< 100 nM,CCCOc1cccc(C2NC(=O)N(CC#N)C3=C2C(=O)c2ccccc23)c1 (centres unmarked) [Compound 615]
4,100 to 500 nM,O=C1NC2=C(C(=O)c3ccccc32)C(c2cccc(OC(F)F)c2)N1 (centres unmarked) [Compound 414]
5,100 to 500 nM,O=C1NC2=C(C(=O)c3ccccc32)C(c2cccc(OCC(F)(F)F)c2)N1 (centres unmarked) [Compound 413]
6,100 to 500 nM,CCCSc1cccc(C2NC(=O)NC3=C2C(=O)c2cccnc23)c1 (centres unmarked) [Compound 906]
7,< 100 nM,C=CCOc1cccc(C2NC(=O)NC3=C2C(=O)c2ccccc23)c1F (centres unmarked) [Compound 401]
8,< 100 nM,CCCOc1cccc(C2NC(=O)N(Cc3ccccc3)C3=C2C(=O)c2ccccc23)c1 (centres unmarked) [Compound 647]
9,100 to 500 nM,CCOc1cccc(C2NC(=O)N(Cc3cccnc3)C3=C2C(=O)c2ccccc23)c1 (centres unmarked) [Compound 612]
10,< 100 nM,C=CCOc1cccc(C2NC(=S)NC3=C2C(=O)c2ccccc23)c1 (centres unmarked) [Compound 305]
11,< 100 nM,CCOc1cccc(C2NC(=O)N(CC#N)C3=C2C(=O)c2ccccc23)c1F (centres unmarked) [Compound 617]
12,< 100 nM,C=CCOc1cccc(C2NC(=O)N(C)C3=C2C(=O)c2ccccc23)c1 (centres unmarked) [Compound 629]
13,< 100 nM,O=C1C2=C(c3ccccc31)N(Cc1ccccc1)C(=O)NC2c1cccc(OC(F)F)c1 (centres unmarked) [Compound 620]
14,500 to 1000 nM,CCOc1cccc(C2NC(=O)N(CC(=O)OC(C)(C)C)C3=C2C(=O)c2ccccc23)c1 (centres unmarked) [Compound 609]
15,100 to 500 nM,CCN1C(=O)NC(c2cccc(OC)c2)C2=C1c1ccccc1C2=O (centres unmarked) [Compound 623]
16,500 to 1000 nM,CCCCc1cccc(C2NC(=O)NC3=C2C(=O)c2ccccc23)c1 (centres unmarked) [Compound 427]
17,100 to 500 nM,COCCN1C(=O)NC(c2cccc(OC)c2)C2=C1c1ccccc1C2=O (centres unmarked) [Compound 627]
